Test [1] concerns MCF-10A. Kind of test: cells. The note with it: Homo sapiens, 72 h.
Description: Cytotoxicity against human MCF-10A cells incubated for 72 hrs by MTT assay
For test [2], the system named is BT-549. Description: cells. The note with it: Homo sapiens, BT-549, 72 h.
Description: Cytotoxicity against human BT-549 cells incubated for 72 hrs by MTT assay
The test system of test [3] is MDA-MB-231. Description: cells. The note with it: Homo sapiens, MDA-MB-231, 72 h.
Description: Cytotoxicity against human MDA-MB-231 cells incubated for 72 hrs by MTT assay
Test [4] deals with MDA-MB-231. Kind of test: cells. The settings on record: Homo sapiens, MDA-MB-231, 72 h. This is another data set of the same source.
Test [5] relates to BT-549. Kind of test: cells. The note with it: Homo sapiens, BT-549, 72 h. This is another data set of the same source.
For test [6], the system named is MCF-10A. Kind of test: cells. The settings on record: Homo sapiens, 72 h. The source holds these as a separate data set.
Test [7] relates to MDA-MB-231. Kind of test: Synergistic antitumor activity against human MDA-MB-231 cells xenografted in BALB/c mouse assessed as tumor growth inhibition at 50 mg/kg,ip administrated in presence of Niraparib for 21 consecutive days. The test is classed as functional. The note with it: read-out: TGI.

Structures are written as SMILES.

The term IC50 denotes the concentration at which inhibition is half-maximal. `O=C(c1cc(Cc2n[nH]c(=O)c3ccccc23)ccc1F)N1CCN(C(=O)C2CC2)CC1` [OLAPARIB]: the IC50 in test [1] is greater than 40 µM; in test [2], 35.2 µM; in test [3], 35.8 µM.
For the compound `CCNc1cc(-c2ccc(CC(=O)NCCCc3nc4c(C(N)=O)cccc4[nH]3)cc2)cc(C(=O)NCc2c(C)cc(C)[nH]c2=O)c1C`, the results for the IC50 in test [1], in test [2] and in test [3] were greater than 40 µM, 37.2 µM and greater than 40 µM, respectively.
For `CCNc1cc(-c2ccc(CC(=O)N3CCC(Cc4nc5c(C(N)=O)cccc5[nH]4)CC3)cc2)cc(C(=O)NCc2c(C)cc(C)[nH]c2=O)c1C`, the IC50 in test [1], in test [2] and in test [3] was greater than 40 µM throughout.
For the compound `CCNc1cc(-c2ccc(CC(=O)NCCCCCc3nc4c(C(N)=O)cccc4[nH]3)cc2)cc(C(=O)NCc2c(C)cc(C)[nH]c2=O)c1C`, the IC50 in test [1], in test [2] and in test [3] was greater than 40 µM each time.
As to `CCNc1cc(-c2ccc(CC(=O)N3CCC(c4nc5c(C(N)=O)cccc5[nH]4)CC3)cc2)cc(C(=O)NCc2c(C)cc(C)[nH]c2=O)c1C`, the half-maximal inhibitory concentration (IC50) in test [1], in test [2] and in test [3] was greater than 40 µM in each case.
On to `CCNc1cc(-c2ccc(CC(=O)Nc3ccc(-c4nc5c(C(N)=O)cccc5[nH]4)cc3)cc2)cc(C(=O)NCc2c(C)cc(C)[nH]c2=O)c1C`, for which the IC50 in test [1], in test [2] and in test [3] was greater than 40 µM throughout.
Take `CCNc1cc(-c2ccc(CC(=O)NCCCCc3nc4c(C(N)=O)cccc4[nH]3)cc2)cc(C(=O)NCc2c(C)cc(C)[nH]c2=O)c1C`: the IC50 in test [1], in test [2] and in test [3] was greater than 40 µM in each case.
In the case of `CCNc1cc(-c2ccc(CC(=O)NCCc3nc4c(C(N)=O)cccc4[nH]3)cc2)cc(C(=O)NCc2c(C)cc(C)[nH]c2=O)c1C`, the IC50 in test [1] was greater than 40 µM; in test [2] it was 31.5 µM; in test [3] it was greater than 40 µM.
In the case of `CCNc1cc(-c2ccc(CC(=O)NCc3nc4c(C(N)=O)cccc4[nH]3)cc2)cc(C(=O)NCc2c(C)cc(C)[nH]c2=O)c1C`, the IC50 in test [1] is greater than 40 µM; in test [2], 21.8 µM; in test [3] it was greater than 40 µM.
Regarding `CCNc1cc(-c2ccc(CC(=O)N3CC[C@@H](c4nc5c(C(N)=O)cccc5[nH]4)C3)cc2)cc(C(=O)NCc2c(C)cc(C)[nH]c2=O)c1C`, the IC50 is greater than 40 µM in test [1], 22.6 µM in test [2] and greater than 40 µM in test [3].
As to `CCNc1cc(-c2ccc(CC(=O)N3CC(c4nc5c(C(N)=O)cccc5[nH]4)C3)cc2)cc(C(=O)NCc2c(C)cc(C)[nH]c2=O)c1C`, the IC50 in test [1], in test [2] and in test [3] was greater than 40 µM in each case.
As for `CCn1ccc2c(C(=O)NCc3c(C)cc(C)[nH]c3=O)cc(-c3ccc(-c4nc5c(C(N)=O)cccc5[nH]4)cc3)cc21`, the IC50 in test [1], in test [2] and in test [3] was greater than 40 µM in each case.
`CC[C@H](C)n1cc(C)c2c(C(=O)NCc3c(C)cc(C)[nH]c3=O)cc(-c3ccc(N4CCNCC4)nc3)cc21` [GSK2816126]: the IC50 in test [1] was greater than 40 µM; in test [4], 6.32 µM; in test [2], 19.2 µM; in test [5], 8.28 µM; in test [6], greater than 40 µM; in test [3], 13.2 µM. Further, the inhibition in vivo at 50 mg/kg in test [7] amounted to 57.2%.
For the compound `CCNc1cc(-c2ccc(CC(=O)N3CCC[C@H](c4nc5c(C(N)=O)cccc5[nH]4)C3)cc2)cc(C(=O)NCc2c(C)cc(C)[nH]c2=O)c1C`, the values for the IC50 in test [1], in test [2] and in test [3] were greater than 40 µM, 23.5 µM and 33.7 µM, respectively.
